This is an account of results in ChEMBL document CHEMBL3507680, “University of Dundee, Gates Library screen for HepG2 cell viability”.

This data set can be described thus: Human HepG2 cell viability assay in 384 well format. It is filed as toxicity, cell-based. Also noted: dose 125 nL, time 70.5 hour; concentration not given beside the values. As to conditions: HepG2 cells, read-out: Inhibition.

For `COc1c(C2CCCN2Cc2noc(C)n2)c(C)nn1C` (stereo not given), the cytotoxicity at 70.5 h stood at 44.7%. The value for `CCN(CCC1CCN(C(=O)NCc2nncn2CC)CC1)CC1CC1` was 15.6%; that for `Cc1nn(C)c(N(C)C)c1CNCc1ccc(Cn2cncn2)cc1` was 22.4%; that for `CC(C)OCC(=O)N1CCCN(Cc2ccc(C#N)cc2)CC1` was 5.66%.

`COCC(=O)NC(C)Cc1cccc(OC)c1` (stereo not given): the cytotoxicity at 70.5 h came out at 0.122%. The value for `COc1c(CNC(c2ccc(F)cc2)C(C)(C)C)c(C)nn1C` (stereo not given) was 3.66%. The value for `CC(C)(C)n1cc(C(=O)N2CCCN(Cc3cccs3)CC2)cn1` was -2.48%. Regarding `CCN(Cc1ccc2c(c1)OCO2)C(=O)CCc1c(C)nc(C)[nH]c1=O`, the cytotoxicity at 70.5 h was -4.97%. The value for `Cc1nc2ccccc2c(=O)n1CCC(=O)N1CCNC(=O)C1` was -2.46%; that for `Cc1nc(-c2ccsc2)ccc1C(=O)NCCN1CCOCC1` was 0.983%; that for `COC(=O)c1cc(C(=O)N2CCCCCC2)n(-c2ccccc2)n1` was 11.6%. On to `O=C(Nc1cnn(CCN2CCOCC2)c1)c1ccccn1`, for which the cytotoxicity at 70.5 h was -4.34%. `COC(=O)c1cc(C(=O)N2CCOCC2(C)C)n(-c2ccccc2)n1`: the cytotoxicity at 70.5 h is -0.593%. The value for `Cc1nc(-c2ccsc2)ccc1C(=O)NCCC(=O)N1CCCC1` was -3.29%; that for `CCNc1cc2c(nn1)CCN(C(=O)c1ccc(NC3CC3)nc1)C2` was 1.85%; that for `CCNc1cc2c(nn1)CCN(C(=O)c1ccnc(N(C)C)c1)C2` was 0.651%.

Turning to `Cc1ccc(CC(=O)N2CCN(CC(O)c3ccccc3)CC2)cn1` (stereo not given), the cytotoxicity at 70.5 h was found to be 1.06%. With `CNc1nc(CNC(=O)Nc2ccccc2SC)cs1`, the cytotoxicity at 70.5 h amounted to 3.31%. The value for `Cc1ccc(SCC(=O)NS(=O)(=O)c2ccc3c(c2)OCCO3)cc1` was -1.91%; that for `Cc1cnn(CCNCc2csc(-c3ccc(F)cc3)n2)c1` was 3.66%; that for `Cc1cnn(CCNCc2nc(COc3ccc(F)cc3)no2)c1` was 6.22%. For `CCc1ccc(C(=O)N2CCN(CC(C)O)CC2)o1` (stereo not given), the cytotoxicity at 70.5 h turned out to be 2.04%. The value for `Cc1nc(C)n(CC2CCCN2CCc2cccs2)n1` (stereo not given) was 39.6%. With `c1ccc(-c2cnc(CN3CCn4c(nnc4C4CC4)C3)o2)cc1`, the cytotoxicity at 70.5 h is -9.82%. As for `Clc1ccccc1-c1nc(CNCCn2cccn2)cs1`, the figure is -6.01%; as for `CC(C(=O)NCc1ccnc(N2CCCC2)c1)n1cncn1` (stereo not given), -1.47%; as for `CC(=O)N1CCCN(C(=O)CCc2c(C)noc2C)CC1`, -16.4%.

Consider `CCn1ccnc1CN1CCN(Cc2ccc(C#N)cc2)CC1`, for which the cytotoxicity at 70.5 h came out at 28.9%. As for `CCOc1ccccc1OC1CCN(C(=O)c2cc[nH]n2)CC1`, the figure is -1.68%; as for `CC(NC(=O)N(C)Cc1ccsc1)c1ccc2c(c1)OCO2` (stereo not given), -14.1%; as for `Cc1cc(C)c(CNC(=O)NCc2ccc3c(c2)CCC3)c(=O)[nH]1`, -10.5%. As for `Cc1ccc(C(=O)N2CCN(CC(O)c3ccc(F)cc3)CC2)s1` (stereo not given), the figure is -6.7%; as for `CC(C)Oc1ncccc1CNC(=O)N1CCC1c1ccccc1` (stereo not given), 26.6%. As for `Cc1cc2n(n1)CC(CNCc1ccc(-n3cccn3)nc1)CN2` (stereo not given), the figure is 3.95%; as for `CCOc1ccccc1C(CC(=O)Nc1nc(C)cs1)NC(C)=O` (stereo not given), -8.99%. As for `Cc1cc(C)n(CC2CCCN2C(=O)CCCc2ccccn2)n1` (stereo not given), the cytotoxicity at 70.5 h was -5.04%. The value for `CC(C)c1ncc2c(n1)CN(Cc1ccc(C(N)=O)cc1)CC2` was 24.1%. As for `CC(C(=O)NCc1cccc(N2CC=CC2)c1)n1cccn1` (stereo not given), the figure is -7.35%; as for `Cc1nc(C2CCCN2C(=O)c2cc3c(s2)CCCC3)no1` (stereo not given), -3.98%; as for `O=C(Cc1ccc2c(c1)CCO2)N1CCN(c2cnccn2)CC1`, 23.2%.
